Laboratory results published in US20020162794A1, “Anaerobic digestion” (priority 2001, published 2002).
Several values for one entry are separate records, joined by “and”; a condition that tells them apart may be missing. Equal entries are not always repeated.

Key:
[1] = tested on: bacteria of the mixed anaerobic digester culture; assay: Bacterial colony counts from formate bioreactors; type: cell-based
Method: Procedure for Bacterial Colony Counts from Formate Bioreactors
1. Collect samples from each bioreactor in sterile 30-mL glass vials with screw caps.
2. All subsequent operations are performed aseptically in the anaerobic chamber under an atmosphere of 3% H2/7% CO2/90% N2.
4. Seed 0.1-mL samples form the dilution blanks into tryptic soy agar plates.
5. Inoculate three plates for each dilution. Final dilutions on the plates are 10^−3 and 10^−4
6. Incubate all plates anaerobically for 3-4 days at room temperature (approximately 25° C.) prior to manually counting the numbers of colonies on each plate.
7. Calculate the numbers of colony-forming units (CFU) per ml in the original samples.

[2] = tested on: mixed culture from municipal sludge digester; assay: Total Solids (TS) of batch anaerobic digester reactors
Method: A 30 ml samples is withdrawn from each of the 12 reactors into refractory pans after the weight of empty pans was recorded (say W1). […] The weight of pans with dried sample is then noted (say W2). The difference W2˜W1, gives the weight of solids in 30 ml sample. From this the total Solids concentration in units of g/liter is calculated. This TS parameter is indicative of concentration of total solids in the sample including organic substrate, inert organics and inorganics.
(§1) Municipal sludge from the city of Lubbock, Wastewater Treatment Plant was digested in 12 batch digesters. Using twelve batch reactors allowed the collection of control reactors data (i.e., no formate in the reactors) in triplicate, titration studies of increasing formate concentration, and duplicates/triplicates of varying formate concentration. Experiments were conducted in the laboratories of Texas Tech University.
(§2) The reactors were setup on Mar. […] The substrate taken was 2 parts of 50 g/liter sucrose solution mixed with 1 part of digested municipal sludge which acts as the seed material for incorporation of microbes into the reactors. The experiments were started with the following protocol. [drawing 1]

[3] = tested on: mixed culture from municipal sludge digester; assay: Total Volatile Solids (TVS) of batch anaerobic digester reactors
Method: After the above TS measurements were completed, the pans together with dried samples are put into furnace at 550° C. for about two hours. The weight of the pans are then noted (say W3). The difference […] then gives the weight of volatile solids in the 30 ml sample. Again this Total Volatile Solids concentration is manipulated to units of g/liter. TVS determination represents the concentration of the organic substrate in the test sample.
as §1, §2

[4] = tested on: mixed culture from municipal sludge digester; assay: Volume and composition of gas generated in batch anaerobic digesters
Text: Volumetric gas production measurements
The gases generated by the biological activity within the reactors were collected in the overhanging plastic bags. The bags are connected to a tank containing colored water via a gas port used for sampling purpose to determine the gas composition. To measure the volume of gas in the bag, the water in the tank is drained out maintaining a suction pressure head difference of 2 cm between the atmospheric air and the gas inside the tank. The water is drained until there is a jump in the pressure head differences, which is actually noted by observing a jump in the difference in levels of manometer limbs. […] The difference between final water level and initial water level is measured by the scale on the side of the tank and is indicative of the volume of gas collected in each of the bags. The gas is returned to the bags by pumping the drained water back into the water tank, whereby the collected gas inside the water tank is pushed back into the overhanging plastic bags.
Gas composition measurements
To analyze the composition of the gases collected, a small sample of gas was withdrawn through a gas port and then sent out for analysis by a commercial laboratory utilizing gas chromatography.
as §1, §2

[5] = 100000 ppm, average of reactors

O=C[O-].[Na+] [sodium formate]
bacterial counts ([1]; 100 ppm to 100,000 ppm, lower counts at higher concentrations): > 10^5 CFU per milliliter
Colony forming units per mL ([1]; 5000 ppm, reactor 3): 0.59 × 10^7 per mL
Colony forming units per mL ([1]; 10000 ppm, single reactors (2, 4, 5)): 0.26 × 10^7 per mL and 0.19 × 10^7 per mL and 0.38 × 10^7 per mL
Total Solids ([2]; 1000 ppm, day 2): 37.6 g/L and 35.9 g/L
Total Solids ([2]; 1000 ppm, day 7): 33.8 g/L and 32.5 g/L and 32.2 g/L
Total Solids ([2]; 1000 ppm, day 16): 20.3 g/L and 15.8 g/L and 21.4 g/L
Total Solids ([2]; 1000 ppm, day 55): 15.6 g/L and 13.2 g/L and 17.3 g/L
Total Solids ([2]; 1000 ppm, day 243 (so in the source)): 16.6 g/L and 13.0 g/L and 17.8 g/L
Total Solids ([2]; 1000 ppm, formate addition at t = 0): 42.3 g/L and 41.8 g/L and 40.8 g/L
Total Solids ([2]; 5000 ppm, day 2): 35.5 g/L
Total Solids ([2]; 5000 ppm, day 7): 34.6 g/L
Total Solids ([2]; 5000 ppm, day 16): 20.7 g/L
Total Solids ([2]; 5000 ppm, day 55): 23.2 g/L
Total Solids ([2]; 5000 ppm, day 243 (so in the source)): 22.0 g/L
Total Solids ([2]; 5000 ppm, formate addition at t = 0): 47.5 g/L
Total Solids ([2]; 10000 ppm, day 2): 44.5 g/L and 52.6 g/L and 48.3 g/L
Total Solids ([2]; 10000 ppm, day 7): 36.3 g/L and 45.3 g/L and 43.5 g/L
Total Solids ([2]; 10000 ppm, day 16): 34.6 g/L and 41.2 g/L and 31.2 g/L
Total Solids ([2]; 10000 ppm, day 55): 36.3 g/L and 36.8 g/L and 33.3 g/L
Total Solids ([2]; 10000 ppm, day 243 (so in the source)): 33.4 g/L and 39.6 g/L and 30.7 g/L
Total Solids ([2]; 10000 ppm, formate addition at t = 0): 55.1 g/L and 54.9 g/L and 53.4 g/L
Total Solids ([2]; 100000 ppm, day 2): 254 g/L and 289.6 g/L
Total Solids ([2]; 100000 ppm, day 7): 91.5 g/L and 147.4 g/L
Total Solids ([2]; 100000 ppm, day 16): 129 g/L and 151.1 g/L
Total Solids ([2]; 100000 ppm, day 55): 128 g/L and 160 g/L
Total Solids ([2]; 100000 ppm, day 243 (so in the source)): 125 g/L and 147.8 g/L
Total Solids ([2]; 100000 ppm, formate addition at t = 0): 180.4 g/L and 188 g/L
Total Volatile Solids ([3]; 1000 ppm, day 2): 33.4 g/L and 32.6 g/L and 26.7 g/L
Total Volatile Solids ([3]; 1000 ppm, day 7): 30.6 g/L and 29.9 g/L and 29.3 g/L
Total Volatile Solids ([3]; 1000 ppm, day 16): 16.4 g/L and 13.1 g/L and 18.1 g/L
Total Volatile Solids ([3]; 1000 ppm, day 24): 14.4 g/L and 10.3 g/L and 15.2 g/L
Total Volatile Solids ([3]; 1000 ppm, day 55): 12.9 g/L and 10.7 g/L and 14.2 g/L
Total Volatile Solids ([3]; 1000 ppm, with formate addition at t = 0): 39.6 g/L and 38.8 g/L and 37.3 g/L
Total Volatile Solids ([3]; 5000 ppm, day 2): 23.7 g/L
Total Volatile Solids ([3]; 5000 ppm, day 7): 20.3 g/L
Total Volatile Solids ([3]; 5000 ppm, day 16): 12.6 g/L
Total Volatile Solids ([3]; 5000 ppm, day 24): 11.7 g/L
Total Volatile Solids ([3]; 5000 ppm, day 55): 14.7 g/L
Total Volatile Solids ([3]; 5000 ppm, with formate addition at t = 0): 41.8 g/L
Total Volatile Solids ([3]; 10000 ppm, day 2): 25.5 g/L and 30.2 g/L and 29.8 g/L
Total Volatile Solids ([3]; 10000 ppm, day 7): 19.2 g/L and 24 g/L and 24.1 g/L
Total Volatile Solids ([3]; 10000 ppm, day 16): 17.1 g/L and 21.0 g/L and 15.0 g/L
Total Volatile Solids ([3]; 10000 ppm, day 24): 16.4 g/L and 18.9 g/L and 15.2 g/L
Total Volatile Solids ([3]; 10000 ppm, day 55): 19.8 g/L and 20.1 g/L and 18.5 g/L
Total Volatile Solids ([3]; 10000 ppm, with formate addition at t = 0): 38.8 g/L and 46.9 g/L and 46.4 g/L
Total Volatile Solids ([3]; 100000 ppm, day 2): 68.5 g/L and 80.8 g/L
Total Volatile Solids ([3]; 100000 ppm, day 7): 45.8 g/L and 52.7 g/L
Total Volatile Solids ([3]; 100000 ppm, day 16): 44.7 g/L and 54.10 g/L
Total Volatile Solids ([3]; 100000 ppm, day 24): 41.4 g/L and 51.6 g/L
Total Volatile Solids ([3]; 100000 ppm, day 55): 45.5 g/L and 65.8 g/L
Total Volatile Solids ([3]; 100000 ppm, with formate addition at t = 0): 126.6 g/L and 134.9 g/L
Average Composition CH4 ([4]; 1000 ppm, average of reactors): 0%
Average Composition CO2 ([4]; 1000 ppm, average of reactors): 18.3%
Average Composition N2 ([4]; 1000 ppm, average of reactors): 71.7%
Composition CH4 ([4]; 1000 ppm, single reactors): 0%
Composition CO2 ([4]; 1000 ppm, single reactors): 40% and 20% and 25%
Composition N2 ([4]; 1000 ppm, single reactors): 60% and 80% and 75%
Average Composition CH4 ([4]; 5000 ppm): 0.1%
Average Composition CO2 ([4]; 5000 ppm): 41%
Average Composition N2 ([4]; 5000 ppm): 59%
Composition CH4 ([4]; 5000 ppm, reactor 3): 0.1%
Composition CO2 ([4]; 5000 ppm, reactor 3): 41%
Composition N2 ([4]; 5000 ppm, reactor 3): 59%
Volume of CO2 generated ([4]; 5000 ppm, reactor 3): 725 mL
Volume of gas ([4]; 5000 ppm, reactor 3): 1750 mL
Average Composition CH4 ([4]; 10000 ppm, average of reactors): 0%
Average Composition CO2 ([4]; 10000 ppm, average of reactors): 41.7%
Average Composition N2 ([4]; 10000 ppm, average of reactors): 58.3%
Composition CH4 ([4]; 10000 ppm, single reactors): 0%
Composition CO2 ([4]; 10000 ppm, single reactors): 57% and 43% and 40%
Composition N2 ([4]; 10000 ppm, single reactors): 43% and 57% and 60%
Average Composition CH4 [4, 5]: 0%
Average Composition CO2 [4, 5]: 59%
Average Composition N2 [4, 5]: 41.5%
Composition CH4 ([4]; 100000 ppm, single reactors): 0%
Composition CO2 ([4]; 100000 ppm, single reactors): 70% and 47%
Composition N2 ([4]; 100000 ppm, single reactors): 30% and 53%
Volume of CO2 generated ([4]; 100000 ppm, single reactors): 910 mL and 1663 mL
